Data as given in publication PMC9573667, “Efficient Oxidative Dearomatisations of Substituted Phenols Using Hypervalent Iodine (III) Reagents and Antiprotozoal Evaluation of the Resulting Cyclohexadienones against T. b. rhodesiense and P. falciparum Strain NF54” (Molecules, 2022).
Read-outs that look alike come from different tables or passages of the source.

Experiments:
[1] = tested on: P. falciparum, strain NF54, erythrocytic stages; assay: In vitro growth inhibition assay of Plasmodium falciparum NF54 ([3H]-hypoxanthine incorporation); format: cell-based; settings: for IC50: Plasmodium falciparum; for ligand efficiency lipophilic price (LELP), P. falciparum / lipophilic ligand efficiency (LLE), P. falciparum: based on IC50 values in nmol/L, DataWarrior 5.5.0
Method: Antimalarial activity was determined in vitro against the erythrocytic stages of P. falciparum using the drug-sensitive strain NF54. Parasite proliferation was assessed by incorporation of [^3H]-hypoxanthine using a modified version of [75]; for details, please refer to the Supplementary Materials. The positive control was chloroquine.
1. Experimental of biological testing
1.1 In vitro growth inhibition assay of Plasmodium falciparum NF54
Plasmodium falciparum, strain NF54, erythrocytic stages, and the standard drug, chloroquine, were used for the assay. The parasite cultures incubated in RPMI 1640 medium with 5% AlbuMAXTM (without hypoxanthine) were exposed to serial drug dilutions in microtiter plates. After 48 h of incubation at 37 °C in a reduced oxygen atmosphere, 0.5 μCi [3H]-hypoxanthine was added to each well of the plate. Cultures were incubated for a further 24 h before they were harvested onto glass-fiber filters and washed with distilled water. The radioactivity was counted using a BetaplateTM liquid scintillation […]
counter (Wallac, Zurich). […]
concentration and expressed as percentage of the untreated controls. IC50 values were calculated from the sigmoidal inhibition curves using Microsoft Excel. Chloroquine was used as control. […]

[2] = tested on: T. brucei rhodesiense, strain STIB900 trypomastigote forms; assay: In vitro growth inhibition assay of Trypanosoma brucei rhodesiense STIB900 (Alamar blue); format: cell-based; settings: for IC50: Trypanosoma brucei; for ligand efficiency lipophilic price (LELP), T. brucei rhodesiense / lipophilic ligand efficiency (LLE), T. brucei rhodesiense: based on IC50 values in nmol/L, DataWarrior 5.5.0
Method: Trypanocidal activity was determined in vitro against axenically grown bloodstream-forms of T. b. rhodesiense STIB900 as described in Refs. [76, 77] and detailed in the Supplementary Materials. Parasite proliferation was assessed via fluorescence of the redox-sensitive dye resazurin (Alamar blue). The drug melarsoprol was used as the positive control. […]
1.2 In vitro growth inhibition assay of Trypanosoma brucei rhodesiense
Trypanosoma brucei rhodesiense, STIB 900 strain, and the standard drug, melarsoprol, were used for the assay. Minimum Essential Medium (50 μL) supplemented with 25 mM HEPES, 1g/L additional glucose, 1% MEM non-essential amino acids (100x), 0.2 mM 2-mercaptoethanol, 1 mM Na-pyruvate and 15% heat-inactivated horse serum was added to each well of a 96-well microtiter plate. Serial drug dilutions of 11 three-fold dilution steps covering a range from 100 to 0.002 μg/mL were prepared. Then […]
mL double-distilled water) was then added to each well and incubation continued for a further 2–4 h.
Then, the plates were read with a Spectramax Gemini XS microplate fluorometer (Molecular Devices Cooperation, Sunnyvale, CA, USA) using an excitation wavelength of 536 nm and an emission wavelength of 588 nm. The IC50 values were calculated from the sigmoidal inhibition curves using the microplate reader software Softmax Pro (Molecular Devices Cooperation, Sunnyvale, CA, USA).
Melarsoprol was used as control. […]

[3] = tested on: L6 cells rat skeletal myoblasts; assay: Cytotoxicity against L6 cells (Alamar blue); format: cell-based; settings: read-out: Cyt. L6 IC50
Method: The antiprotozoal activity of 5a,b has already been described in the literature. […] Cytotoxicity was determined using L6 rat skeletal myoblasts to calculate a selectivity index for each parasite (SI = IC50(L6)/IC50(parasite)).
Cytotoxicity was determined in vitro against rat L6 myoblasts as described; details are listed in the supplement. […]
1.3 Cytotoxicity against L6 cells
Assays were performed in 96-well microtiter plates, each well containing 100 μL of RPMI 1640 medium supplemented with 1% L-glutamine (200 mM) and 10% foetal bovine serum, and 4000 L6 cells (a […] cell line derived from rat skeletal myoblasts). Serial drug dilutions of 11 threefold dilution steps covering a range from 100 to 0.002 μg/mL were prepared. After 72 h of incubation, the plates were inspected under an inverted microscope to assure growth of the controls and sterile conditions. 10 μL of Alamar Blue solution was then added to each well and the plates incubated for another 2 h. Then the plates were read with a Spectramax Gemini XS microplate fluorometer (Molecular Devices Cooperation, Sunnyvale, CA, USA) using an excitation wavelength of 536 nm and an emission wavelength of 588 nm.
The IC50 values were calculated by linear regression from the sigmoidal dose inhibition curves using the microplate reader software Softmax Pro (Molecular Devices Cooperation, Sunnyvale, CA, USA).
Podophyllotoxin (Sigma P4405) was used as control.

[4] = NF54, strain NF54, erythrocytic stages, means of two to three measurements, SD <5%, read-out: P. falc. IC50
[5] = strain STIB900 trypomastigote forms, means of two to three measurements, SD <5%, read-out: T. b. rhod. IC50
[6] = L6 rat skeletal myoblasts, 72 h

IC50 [1, 4] [nM]	IC50 [2, 5] [nM]	melting point [°C]	IC50 ([2]; STIB900, stated in text in nM, read-out: T. brucei rhodesiense IC50) [nM]	IC50 ([2]; read-out: T. brucei rhodesiense IC50) [nM]	Structure (SMILES)	ligand efficiency lipophilic price (LELP), P. falciparum [1]	lipophilic ligand efficiency (LLE), P. falciparum [1]	ligand efficiency lipophilic price (LELP), T. brucei rhodesiense [2]	lipophilic ligand efficiency (LLE), T. brucei rhodesiense [2]	IC50 [3, 6] [nM]	IC50 ([1]; NF54, read-out: P. falc. IC50) [nM]	IC50 ([2]; read-out: T. b. rhod. IC50) [nM]	IC50 ([3]; Rattus norvegicus, L6, 72 h) [nM]
301	42	–	–	–	COC(=O)CC1(O)C=CC(=O)C(Br)=C1 (stereo not drawn) [Compound 4d, Methyl 2-(3-bromo-1-hydroxy-4-oxocyclohexa-2,5-dien-1-yl)acetate]	0.6181	6.1264	0.5464	6.9818	214	–	–	–
245	10	–	–	–	COC(=O)CC1(O)C=C(Cl)C(=O)C(Cl)=C1 [Compound 4e, Methyl 2-(3,5-dichloro-1-hydroxy-4-oxocyclohexa-2,5-dien-1-yl)acetate]	1.1301	5.9275	0.9339	7.3167	116	–	–	–
–	4870	49 to 50	–	–	COC(=O)CCC1(O)C=CC(=O)C=C1 [Compound 4g, Methyl 3-(1-hydroxy-4-oxocyclohexa-2,5-dien-1-yl)propanoate]	0.5999	4.7892	0.5746	5.0134	> 100000	–	–	–
391	24	–	–	–	COC(=O)CC1(O)C=C(Br)C(=O)C(Br)=C1 [Compound 4f, Methyl 2-(3,5-dibromo-1-hydroxy-4-oxocyclohexa-2,5-dien-1-yl)acetate]	1.613	5.4625	1.3564	6.6745	199	–	–	–
644	78	–	–	–	COC(=O)CC1(O)C=CC(=O)C(F)=C1 (stereo not drawn) [Compound 4b, Methyl 2-(3-fluoro-1-hydroxy-4-oxocyclohexa-2,5-dien-1-yl)acetate]	0.07582	6.1451	–	7.0619	657	–	–	–
657	108	–	–	–	COC(=O)/C=C/C1(O)C=CC(=O)C=C1 [Compound 4i, Methyl (2E)-3-(1-hydroxy-4-oxocyclohexa-2,5-dien-1-yl)prop-2-enoate]	0.07742	6.1355	0.0687	–	569	–	–	–
689	166	128 to 130	–	–	O=C1C=CC(=O)c2cc(F)c(F)cc21 [Compound 5e, 6,7-Difluoro-1,4-dihydronaphthalene-1,4-dione]	2.7178	4.5208	2.470	5.1389	4800	–	–	–
837	47	–	–	–	COC(=O)CC1(O)C=CC(=O)C(Cl)=C1 (stereo not drawn) [Compound 4c, Methyl 2-(3-chloro-1-hydroxy-4-oxocyclohexa-2,5-dien-1-yl)acetate]	0.4433	5.8133	0.3676	7.0639	440	–	–	–
–	4890	105 to 106	–	–	O=C1C=CC2(C=C1)CCC(=O)O2 [Compound 4h, 1-Oxaspiro [4.5]deca-6,9-diene-2,8-dione]	0.1197	5.4846	0.1253	5.2346	425	–	–	–
677	93	119 to 120	< 100	–	O=C1C=CC(=O)c2cc(F)ccc21 [Compound 5d, 6-Fluoro-1,4-dihydronaphthalene-1,4-dione]	2.3657	4.6292	2.0757	5.4913	2170	–	–	–
–	–	–	–	< 100	O=C1C=C(Cc2ccccc2)C(=O)c2ccccc21 [Compound 5c, 2-Benzyl-1,4-dihydronaphthalene-1,4-dione]	–	–	–	–	–	917	80	22000
–	–	–	–	–	COc1cc([C@@H]2c3cc4c(cc3[C@H](O)[C@H]3COC(=O)[C@H]23)OCO4)cc(OC)c1OC [Pod., podophyllotoxin, reference compound]	–	–	–	–	–	–	–	7
969	588	–	–	–	COC(=O)CC1(O)C=CC(=O)C=C1 [Compound 4a, Methyl 2-(1-hydroxy-4-oxocyclohexa-2,5-dien-1-yl)acetate]	-0.2447	6.1690	-0.2362	6.3859	391	–	–	–
–	–	–	–	–	Nc1nc(N)nc(Nc2ccc([As]3SCC(CO)S3)cc2)n1 (stereo not drawn) [Mel., melarsoprol, reference compound]	–	–	–	–	–	–	4	24200
–	–	–	–	–	CCN(CC)CCCC(C)Nc1ccnc2cc(Cl)ccc12 (stereo not drawn) [Chl., chloroquine, reference compound]	–	–	–	–	–	2	–	91100
